The structures appear in SMILES notation. pEC50: −log10 of the molar value.

For orientation: pEC50 means −log10 of the EC50, conventionally taken in molar units. Higher therefore signals a small EC50.

The assay is described as follows: HCV Replicon Assay and EC50 Determination: HCV replicon assay is based on the luciferase reporter cell line (Huh-luc/neo-ET). This reporter cell line is a human liver carcinoma cell line (Huh-7) stably transfected with an autonomously replicating bicistronic HCV subgenomic RNA replicon (Lohmann et al., 1999, Science, 285, 110-113). Inhibition of HCV RNA replication was monitored through analysis of reporter luciferase activity. Briefly, HCV replicon cells were incubated with inhibitors for 72 hours at 37° C. After the incubation, duplicate plates were treated and incubated in parallel for assessment of cellular toxicity by XTT staining and anti-HCV activity by measurement of luciferase reporter activity. Either human interferon alpha 2B or ribavirin was used as a reference compound. EC50 values were determined using GraFit (Erithaus software) or Excel. (In general: A replicon is a self-replicating genome or part of one, used to study replication in cells.)
Compound `CNC(=O)c1c(-c2ccc(F)cc2)oc2cc(N(CCOCCOCc3ccc(OC)c(C(=O)O)c3)S(C)(=O)=O)c(C3CC3)cc12` had a pEC50 of 6.00 to 7.00.
Consider `CNC(=O)c1c(-c2ccc(F)cc2)oc2cc(N(CCCCCOCc3ccc(C(=O)O)cc3)S(C)(=O)=O)c(C3CC3)cc12`, for which the pEC50 was > 7.00.
As for `CNC(=O)c1c(-c2ccc(F)cc2)oc2cc(N(CC(=O)NC(C)C(=O)NCc3cccc(C(=O)/C=C(\O)C(=O)O)c3)S(C)(=O)=O)c(C3CC3)cc12` (centres undefined), the figure is 6.00 to 7.00; as for `CNC(=O)c1c(-c2ccc(F)cc2)oc2cc(N(CCOCCOCc3ccc(C(=O)/C=C(\O)C(=O)O)cc3)S(C)(=O)=O)c(C3CC3)cc12`, > 7.00.
To `CNC(=O)c1c(-c2ccc(F)cc2)oc2cc(N(CCOCCOCCOCCO)S(C)(=O)=O)c(C3CC3)cc12` belongs 6.00 to 7.00; to `CNC(=O)c1c(-c2ccc(F)cc2)oc2cc(N(CCOCCOCCOCC(=O)NO)S(C)(=O)=O)c(C3CC3)cc12`, > 7.00; to `CNC(=O)c1c(-c2ccc(F)cc2)oc2cc(N(CCOCCCc3cccc(C(=O)/C=C(\O)C(=O)O)c3)S(C)(=O)=O)c(C3CC3)cc12`, > 7.00.
Turning to `CNC(=O)c1c(-c2ccc(F)cc2)oc2cc(N(CCOCCOCc3ccccc3C(=O)O)S(C)(=O)=O)c(C3CC3)cc12`, the pEC50 is > 7.00.
For `CNC(=O)c1c(-c2ccc(F)cc2)oc2cc(N(CCOCCCOCc3cccc(C(=O)/C=C(\O)C(=O)O)c3)S(C)(=O)=O)c(C3CC3)cc12`, the pEC50 was > 7.00.
To `CNC(=O)c1c(-c2ccc(F)cc2)oc2cc(N(CCCCCCCc3ccc(C(=O)O)cc3)S(C)(=O)=O)c(C3CC3)cc12` belongs > 7.00; to `CNC(=O)c1c(-c2ccc(F)cc2)oc2cc(N(CCOC(=O)CNC(=O)CCCC(=O)O)S(C)(=O)=O)c(C3CC3)cc12`, 6.00 to 7.00; to `CNC(=O)c1c(-c2ccc(F)cc2)oc2cc(N(CC(=O)NC3(C(=O)NCc4cccc(C(=O)/C=C(\O)C(=O)O)c4)CCCC3)S(C)(=O)=O)c(C3CC3)cc12`, 6.00 to 7.00.
In the case of `CNC(=O)c1c(-c2ccc(F)cc2)oc2cc(N(CCOCCOCc3cccc(C(=O)/C=C(\O)C(=O)O)c3)S(C)(=O)=O)c(C3CC3)cc12`, the negative-log EC50 (pEC50) is > 7.00.
As to `CNC(=O)c1c(-c2ccc(F)cc2)oc2cc(N(CCOCCOCc3ccc(C(=O)O)cc3)S(C)(=O)=O)c(C3CC3)cc12`, the pEC50 is 6.00 to 7.00.
As to `CNC(=O)c1c(-c2ccc(F)cc2)oc2cc(N(CCOCCOCc3ccc(F)c(C(=O)O)c3)S(C)(=O)=O)c(C3CC3)cc12`, the pEC50 was > 7.00.
For `CNC(=O)c1c(-c2ccc(F)cc2)oc2cc(N(CC(=O)NC(C)(C)C(=O)NCc3cccc(C(=O)/C=C(\O)C(=O)O)c3)S(C)(=O)=O)c(C3CC3)cc12`, the negative logarithm of the EC50 (pEC50) was 6.00 to 7.00.
`CNC(=O)c1c(-c2ccc(F)cc2)oc2cc(N(CCOCCOCCOC(C(=O)O)c3ccccc3)S(C)(=O)=O)c(C3CC3)cc12` (centres undefined) showed a pEC50 of 6.00 to 7.00.
To `CNC(=O)c1c(-c2ccc(F)cc2)oc2cc(N(CCOCCOCCOCCOCCOCCOCc3cccc(C(=O)/C=C(\O)C(=O)O)c3)S(C)(=O)=O)c(C3CC3)cc12` belongs 6.00 to 7.00; to `CNC(=O)c1c(-c2ccc(F)cc2)oc2cc(N(CCOCCOCc3cccc(C(=O)O)c3)S(C)(=O)=O)c(C3CC3)cc12`, > 7.00; to `CNC(=O)c1c(-c2ccc(F)cc2)oc2cc(N(CCOCCOCCOC(C)C(=O)O)S(C)(=O)=O)c(C3CC3)cc12` (centres undefined), > 7.00.
Regarding `CNC(=O)c1c(-c2ccc(F)cc2)oc2cc(N(CCOCCOCCOCC(=O)O)S(C)(=O)=O)c(C3CC3)cc12`, the pEC50 was 6.00 to 7.00.
Take `CNC(=O)c1c(-c2ccc(F)cc2)oc2cc(N(CCCCOCCc3ccc(C(=O)O)cc3)S(C)(=O)=O)c(C3CC3)cc12`: the negative logarithm of the EC50 (pEC50) is > 7.00.
As for `CNC(=O)c1c(-c2ccc(F)cc2)oc2cc(N(CC(=O)NCC(=O)NCc3cccc(C(=O)/C=C(\O)C(=O)O)c3)S(C)(=O)=O)c(C3CC3)cc12`, the figure is 6.00 to 7.00; as for `CNC(=O)c1c(-c2ccc(F)cc2)oc2cc(N(CCOCCOCc3cccc(C(C)=O)c3)S(C)(=O)=O)c(C3CC3)cc12`, > 7.00.

The values above are taken from ChEMBL document CHEMBL5728324, “Inhibitors of Hepatitis C virus polymerase” (2021).
